Data: paper PMC5218480 (PLoS ONE, 2017)

System: MV-4-11 cells
Assay: Gene expression microarray analysis (Affymetrix PrimeView) and GSEA
Type: cell-based, human
Set-up: RFU PODN (11730768_x_at) / Fold change /veh PODN (11730768_x_at) / RFU LINC00158 (11744669_a_at) / Fold change /veh LINC00158 (11744669_a_at) / RFU DUSP10 (11751237_a_at) / Fold change /veh DUSP10 (11751237_a_at) / RFU ID3 (11757404_x_at) / Fold change /veh ID3 (11757404_x_at) / RFU PLEKHG5 (11737974_s_at) / Fold change /veh PLEKHG5 (11737974_s_at) / RFU LRRC4B (11730491_at) / Fold change /veh LRRC4B (11730491_at) / RFU GIMAP4 (11747438_a_at) / Fold change /veh GIMAP4 (11747438_a_at) / RFU KRT8 (11758183_x_at) / Fold change /veh KRT8 (11758183_x_at) / RFU CNN1 (11734310_a_at) / Fold change /veh CNN1 (11734310_a_at) / RFU VPS37D (11726825_at) / Fold change /veh VPS37D (11726825_at) / RFU C10orf10 (11716522_x_at) / Fold change /veh C10orf10 (11716522_x_at) / RFU KIR2DL2 /// KIR2DL4 /// KIR2DL5A /// KIR2DL5B /// KIR2DS1 /// KIR2DS2 /// KIR2DS3 /// KIR2DS4 /// KIR3DL3 /// KIR3DL3 /// KIR3DS1 (11738374_at) / Fold change /veh KIR2DL2 /// KIR2DL4 /// KIR2DL5A /// KIR2DL5B /// KIR2DS1 /// KIR2DS2 /// KIR2DS3 /// KIR2DS4 /// KIR3DL3 /// KIR3DL3 /// KIR3DS1 (11738374_at) / RFU C1QL1 (11718748_at) / Fold change /veh C1QL1 (11718748_at) / RFU TMPRSS4 (11747572_a_at) / Fold change /veh TMPRSS4 (11747572_a_at) / RFU HAMP (11756126_x_at) / Fold change /veh HAMP (11756126_x_at) / RFU RNFT2 (11725882_a_at) / Fold change /veh RNFT2 (11725882_a_at) / RFU NR4A2 (11747474_a_at) / Fold change /veh NR4A2 (11747474_a_at) / RFU ABCC12 (11746883_a_at) / Fold change /veh ABCC12 (11746883_a_at) / RFU TMEM136 (11760407_x_at) / Fold change /veh TMEM136 (11760407_x_at) / RFU CLDN22 /// WWC2 (11732394_at) / Fold change /veh CLDN22 /// WWC2 (11732394_at) / RFU HLA-DPB1 (11760878_x_at) / Fold change /veh HLA-DPB1 (11760878_x_at) / RFU SPINT1 (11716480_a_at) / Fold change /veh SPINT1 (11716480_a_at) / RFU GAP43 (11754022_s_at) / Fold change /veh GAP43 (11754022_s_at) / RFU A4GNT (11735810_at) / Fold change /veh A4GNT (11735810_at) / RFU PRB3 (11715151_x_at) / Fold change /veh PRB3 (11715151_x_at) / RFU TUBB4B (11761932_at) / Fold change /veh TUBB4B (11761932_at) / RFU CAPN14 (11732068_a_at) / Fold change /veh CAPN14 (11732068_a_at) / RFU TMCC2 (11721928_a_at) / Fold change /veh TMCC2 (11721928_a_at) / RFU IRGQ (11745062_a_at) / Fold change /veh IRGQ (11745062_a_at) / RFU FAM174B (11720279_a_at) / Fold change /veh FAM174B (11720279_a_at) / RFU TMPRSS4 (11748680_a_at) / Fold change /veh TMPRSS4 (11748680_a_at) / RFU FAM212B (11763350_a_at) / Fold change /veh FAM212B (11763350_a_at) / RFU PLEKHG5 (11743358_a_at) / Fold change /veh PLEKHG5 (11743358_a_at) / RFU ZSCAN30 (11745921_a_at) / Fold change /veh ZSCAN30 (11745921_a_at) / RFU CMKLR1 (11741424_a_at) / Fold change /veh CMKLR1 (11741424_a_at) / RFU LOC101060620 /// MAPK8IP1 (11723275_at) / Fold change /veh LOC101060620 /// MAPK8IP1 (11723275_at) / RFU SPTSSB (11747773_x_at) / Fold change /veh SPTSSB (11747773_x_at) / RFU PRSS12 (11739890_at) / Fold change /veh PRSS12 (11739890_at) / RFU BIN1 (11741810_x_at) / Fold change /veh BIN1 (11741810_x_at) / RFU WNT11 (11732464_a_at) / Fold change /veh WNT11 (11732464_a_at) / RFU C10orf10 (11716521_a_at) / Fold change /veh C10orf10 (11716521_a_at) / RFU C5orf56 (11738089_at) / Fold change /veh C5orf56 (11738089_at) / RFU CYB561 (11721691_x_at) / Fold change /veh CYB561 (11721691_x_at) / RFU ANKRD19P (11752326_a_at) / Fold change /veh ANKRD19P (11752326_a_at) / RFU OR2T12 /// OR2T33 /// OR2T8 (11738714_s_at) / Fold change /veh OR2T12 /// OR2T33 /// OR2T8 (11738714_s_at) / RFU VCAN (11748164_a_at) / Fold change /veh VCAN (11748164_a_at) / RFU JSRP1 (11732532_at) / Fold change /veh JSRP1 (11732532_at) / RFU KRTAP10-11 (11738290_x_at) / Fold change /veh KRTAP10-11 (11738290_x_at) / RFU MYO3A (11730013_a_at) / Fold change /veh MYO3A (11730013_a_at) / RFU EBF3 (11725865_a_at) / Fold change /veh EBF3 (11725865_a_at) / RFU CAMK2N1 (11719241_x_at) / Fold change /veh CAMK2N1 (11719241_x_at) / RFU C5orf56 (11738088_a_at) / Fold change /veh C5orf56 (11738088_a_at) / RFU OLFML3 (11715873_a_at) / Fold change /veh OLFML3 (11715873_a_at) / RFU LOC100653217 /// NTM (11731650_a_at) / Fold change /veh LOC100653217 /// NTM (11731650_a_at) / RFU MAPK11 (11762145_a_at) / Fold change /veh MAPK11 (11762145_a_at) / RFU FIZ1 (11724087_x_at) / Fold change /veh FIZ1 (11724087_x_at) / RFU OASL (11726364_x_at) / Fold change /veh OASL (11726364_x_at) / RFU SOX15 (11748057_x_at) / Fold change /veh SOX15 (11748057_x_at) / RFU CD79A (11719716_a_at) / Fold change /veh CD79A (11719716_a_at) / RFU HIST1H1D (11736915_at) / Fold change /veh HIST1H1D (11736915_at) / RFU CASKIN2 (11723855_a_at) / Fold change /veh CASKIN2 (11723855_a_at) / RFU LOC730098 (11760151_x_at) / Fold change /veh LOC730098 (11760151_x_at) / RFU OR4N2 (11742367_at) / Fold change /veh OR4N2 (11742367_at) / RFU PRRT2 (11749266_a_at) / Fold change /veh PRRT2 (11749266_a_at) / RFU SNX32 (11753110_a_at) / Fold change /veh SNX32 (11753110_a_at) / RFU CDHR5 (11726645_a_at) / Fold change /veh CDHR5 (11726645_a_at) / RFU RCAN1 (11760418_a_at) / Fold change /veh RCAN1 (11760418_a_at) / RFU FAM167A (11723789_a_at) / Fold change /veh FAM167A (11723789_a_at) / RFU FAM26E (11764081_at) / Fold change /veh FAM26E (11764081_at) / RFU ISYNA1 (11749810_s_at) / Fold change /veh ISYNA1 (11749810_s_at) / RFU ACY1 (11761880_at) / Fold change /veh ACY1 (11761880_at) / RFU 11764098_at / Fold change /veh 11764098_at / RFU SAMD14 (11745864_x_at) / Fold change /veh SAMD14 (11745864_x_at) / RFU NPB (11741838_a_at) / Fold change /veh NPB (11741838_a_at) / RFU TMPRSS6 (11731388_a_at) / Fold change /veh TMPRSS6 (11731388_a_at) / RFU KRTAP10-2 (11738614_at) / Fold change /veh KRTAP10-2 (11738614_at) / RFU ARHGAP8 /// PRR5-ARHGAP8 (11727945_x_at) / Fold change /veh ARHGAP8 /// PRR5-ARHGAP8 (11727945_x_at) / RFU KRTAP5-7 /// NADSYN1 (11734609_at) / Fold change /veh KRTAP5-7 /// NADSYN1 (11734609_at) / RFU RASL12 (11751679_a_at) / Fold change /veh RASL12 (11751679_a_at) / RFU CDKN2B (11736163_a_at) / Fold change /veh CDKN2B (11736163_a_at) / RFU PRF1 (11729649_at) / Fold change /veh PRF1 (11729649_at) / RFU, ZNF638 /// ZNF638-IT1 / Fold change vs veh, ZNF638 /// ZNF638-IT1 / RFU, PANK3 / Fold change vs veh, PANK3 / RFU, SH3YL1 / Fold change vs veh, SH3YL1 / RFU, ZEB2 / Fold change vs veh, ZEB2 / RFU, NRIP1 / Fold change vs veh, NRIP1 / RFU, PTTG1IP / Fold change vs veh, PTTG1IP / RFU, CAPN2 / Fold change vs veh, CAPN2 / RFU, MED14 / Fold change vs veh, MED14 / RFU, SNORA58 / Fold change vs veh, SNORA58 / RFU, C1orf63 / Fold change vs veh, C1orf63 / RFU, LRRFIP1 / Fold change vs veh, LRRFIP1 / RFU, NDUFAF7 / Fold change vs veh, NDUFAF7 / RFU, SLC12A2 / Fold change vs veh, SLC12A2 / RFU, IBTK / Fold change vs veh, IBTK / RFU, ESF1 / Fold change vs veh, ESF1 / Fold change vs veh, TMEM50B / RFU, TAOK1 / Fold change vs veh, TAOK1 / RFU, ACBD3 / Fold change vs veh, ACBD3 / RFU, TMA16 / Fold change vs veh, TMA16 / RFU, RWDD3 / Fold change vs veh, RWDD3 / RFU, BCAT1 / Fold change vs veh, BCAT1 / RFU, EDEM3 / Fold change vs veh, EDEM3 / RFU, TMEM33 / Fold change vs veh, TMEM33 / RFU, WDR75 / Fold change vs veh, WDR75 / RFU, AHCTF1 / Fold change vs veh, AHCTF1 / RFU, TFRC / Fold change vs veh, TFRC / RFU, ZDHHC17 / Fold change vs veh, ZDHHC17 / RFU, NOM1 / Fold change vs veh, NOM1 / RFU, ARL8B / Fold change vs veh, ARL8B / RFU, ZBTB11 / Fold change vs veh, ZBTB11 / RFU, TAMM41 / Fold change vs veh, TAMM41 / RFU, KIAA1704 /// LOC100996395 / Fold change vs veh, KIAA1704 /// LOC100996395 / RFU, ING1 / Fold change vs veh, ING1 / RFU, TRMT61B / Fold change vs veh, TRMT61B / RFU, FUBP3 / Fold change vs veh, FUBP3 / RFU, TP53 / Fold change vs veh, TP53 / RFU, TNKS2 / Fold change vs veh, TNKS2 / RFU, ZFP14 / Fold change vs veh, ZFP14 / RFU, ACTR2 / Fold change vs veh, ACTR2 / RFU, PPP3R1 / Fold change vs veh, PPP3R1 / RFU, PIK3R1 / Fold change vs veh, PIK3R1 / RFU, HNRNPA1 / Fold change vs veh, HNRNPA1 / RFU, RNF170 / Fold change vs veh, RNF170 / RFU, ZNF28 / Fold change vs veh, ZNF28 / RFU, RNGTT / Fold change vs veh, RNGTT / RFU, OGT / Fold change vs veh, OGT / RFU, BRD1 / Fold change vs veh, BRD1 / RFU, MARS / Fold change vs veh, MARS / RFU, ZNF655 / Fold change vs veh, ZNF655 / RFU, FAHD1 / Fold change vs veh, FAHD1 / RFU, BDP1 / Fold change vs veh, BDP1 / RFU, LRRCC1 / Fold change vs veh, LRRCC1 / RFU, ARID1A / Fold change vs veh, ARID1A / RFU, ZNF146 / Fold change vs veh, ZNF146 / RFU, ZNF330 / Fold change vs veh, ZNF330 / RFU, GPN3 / Fold change vs veh, GPN3 / RFU, C9orf123 / Fold change vs veh, C9orf123 / RFU, N4BP2L2 / Fold change vs veh, N4BP2L2 / RFU, ARFIP1 / Fold change vs veh, ARFIP1 / RFU, FAM179B / Fold change vs veh, FAM179B / RFU, BCL10 / Fold change vs veh, BCL10 / RFU, UHRF1BP1L / Fold change vs veh, UHRF1BP1L / RFU, BET1 / Fold change vs veh, BET1 / RFU, CNOT2 / Fold change vs veh, CNOT2 / RFU, ZNF268 / Fold change vs veh, ZNF268 / Fold change vs veh, ZNF507 / RFU, DGCR2 / Fold change vs veh, DGCR2 / RFU, WDSUB1 / Fold change vs veh, WDSUB1 / Fold change vs veh, HSP90B1 /// MIR3652 / RFU, ADSS / Fold change vs veh, ADSS / RFU, GK / Fold change vs veh, GK / RFU, ZNF148 / Fold change vs veh, ZNF148 / RFU, TAF9 / Fold change vs veh, TAF9 / RFU, SLC1A5 / Fold change vs veh, SLC1A5 / RFU, SLMO2 / Fold change vs veh, SLMO2 / RFU, ABCC4 / Fold change vs veh, ABCC4 / RFU, LOC101060439 /// RAP1B / Fold change vs veh, LOC101060439 /// RAP1B / RFU, RFX7 / Fold change vs veh, RFX7 / RFU, GTPBP10 / Fold change vs veh, GTPBP10 / RFU, CNEP1R1 / Fold change vs veh, CNEP1R1 / RFU, BIVM-ERCC5 /// ERCC5 / Fold change vs veh, BIVM-ERCC5 /// ERCC5 / RFU, ILF3 / Fold change vs veh, ILF3 / RFU 11762660_at / Fold change /veh 11762660_at / RFU VCAN (11757783_s_at) / Fold change /veh VCAN (11757783_s_at) / RFU DDX43 (11728927_at) / Fold change /veh DDX43 (11728927_at) / RFU KRT8 (11758188_x_at) / Fold change /veh KRT8 (11758188_x_at) / RFU NKD1 (11759106_at) / Fold change /veh NKD1 (11759106_at) / RFU SRD5A1 (11742802_a_at) / Fold change /veh SRD5A1 (11742802_a_at) / RFU TPSAB1 /// TPSB2 (11721975_s_at) / Fold change /veh TPSAB1 /// TPSB2 (11721975_s_at) / RFU GSTM3 (11746129_a_at) / Fold change /veh GSTM3 (11746129_a_at) / RFU IL23R (11737362_x_at) / Fold change /veh IL23R (11737362_x_at) / RFU TMEM51 (11727254_a_at) / Fold change /veh TMEM51 (11727254_a_at) / RFU PIWIL2 (11732686_x_at) / Fold change /veh PIWIL2 (11732686_x_at) / RFU ORM1 (11744905_x_at) / Fold change /veh ORM1 (11744905_x_at) / RFU CCDC152 (11743942_at) / Fold change /veh CCDC152 (11743942_at) / RFU ECM1 (11717891_a_at) / Fold change /veh ECM1 (11717891_a_at) / RFU IL23R (11748794_a_at) / Fold change /veh IL23R (11748794_a_at) / RFU TNFAIP8L3 (11732012_x_at) / Fold change /veh TNFAIP8L3 (11732012_x_at) / RFU MBOAT4 (11741988_at) / Fold change /veh MBOAT4 (11741988_at) / RFU 11764193_at / Fold change /veh 11764193_at / RFU TMEM53 (11763286_at) / Fold change /veh TMEM53 (11763286_at) / RFU MAGEB2 (11727129_at) / Fold change /veh MAGEB2 (11727129_at) / RFU TMEM200A (11744735_a_at) / Fold change /veh TMEM200A (11744735_a_at) / RFU CCDC152 (11751479_a_at) / Fold change /veh CCDC152 (11751479_a_at) / RFU FAM211A (11726209_a_at) / Fold change /veh FAM211A (11726209_a_at) / RFU RGS16 (11746705_a_at) / Fold change /veh RGS16 (11746705_a_at) / RFU VCAN (11755009_s_at) / Fold change /veh VCAN (11755009_s_at) / RFU RHOB (11743442_s_at) / Fold change /veh RHOB (11743442_s_at) / RFU RGS16 (11720943_a_at) / Fold change /veh RGS16 (11720943_a_at) / RFU RGS16 (11720944_at) / Fold change /veh RGS16 (11720944_at) / RFU, VPS4B / Fold change vs veh, VPS4B / RFU, CREB1 / Fold change vs veh, CREB1 / RFU, DNAJC13 / Fold change vs veh, DNAJC13 / RFU, GNAQ / Fold change vs veh, GNAQ / RFU, CDK5R1 / Fold change vs veh, CDK5R1 / RFU, ZRANB3 / Fold change vs veh, ZRANB3 / RFU, CUL4A / Fold change vs veh, CUL4A / RFU, CCNY / Fold change vs veh, CCNY / RFU, UFL1 / Fold change vs veh, UFL1 / RFU, COG3 / Fold change vs veh, COG3 / RFU, DIAPH2 / Fold change vs veh, DIAPH2 / RFU, SKA2 / Fold change vs veh, SKA2 / RFU, AFF3 / Fold change vs veh, AFF3 / RFU, LMF1 / Fold change vs veh, LMF1 / RFU, IPO11 / Fold change vs veh, IPO11 / RFU, DFFB / Fold change vs veh, DFFB / RFU, FOXP1 / Fold change vs veh, FOXP1 / RFU, CARD8 / Fold change vs veh, CARD8 / RFU, STRN3 / Fold change vs veh, STRN3 / RFU, ADK / Fold change vs veh, ADK / RFU, RASSF2 / Fold change vs veh, RASSF2 / RFU, WIPF1 / Fold change vs veh, WIPF1 / RFU, LARP1B / Fold change vs veh, LARP1B / RFU, RASA1 / Fold change vs veh, RASA1 / RFU, RB1 / Fold change vs veh, RB1 / RFU, PPFIA1 / Fold change vs veh, PPFIA1 / RFU, MAT2A / Fold change vs veh, MAT2A / RFU, CCT5 / Fold change vs veh, CCT5 / RFU, WDR92 / Fold change vs veh, WDR92 / RFU, CUX1 / Fold change vs veh, CUX1 / RFU, TTC7A / Fold change vs veh, TTC7A / RFU, TMEM135 / Fold change vs veh, TMEM135 / RFU, DEPTOR / Fold change vs veh, DEPTOR / RFU, CPM / Fold change vs veh, CPM / RFU, DNAJB6 / Fold change vs veh, DNAJB6 / RFU, CACNA2D3 / Fold change vs veh, CACNA2D3 / RFU, DTX4 / Fold change vs veh, DTX4 / RFU, TFCP2 / Fold change vs veh, TFCP2 / RFU, GMCL1 /// GMCL1P1 / Fold change vs veh, GMCL1 /// GMCL1P1 / RFU, AEBP2 / Fold change vs veh, AEBP2 / RFU, SNHG1 /// SNORD22 /// SNORD25 /// SNORD26 /// SNORD27 /// SNORD28 /// SNORD29 /// SNORD31 / Fold change vs veh, SNHG1 /// SNORD22 /// SNORD25 /// SNORD26 /// SNORD27 /// SNORD28 /// SNORD29 /// SNORD31 / Fold change (Aza/veh), C12orf56 (ProbeSet 11735607_a_at) / Fold change (ACY-1035/veh), C12orf56 (ProbeSet 11735607_a_at) / Fold change (Aza/veh), FGFR1OP (ProbeSet 11751329_s_at) / Fold change (ACY-1035/veh), FGFR1OP (ProbeSet 11751329_s_at) / Fold change (Aza/veh), VPS36 (ProbeSet 11739960_a_at) / Fold change (ACY-1035/veh), VPS36 (ProbeSet 11739960_a_at) / RFU SYPL1 (11715823_x_at) / Fold change /veh SYPL1 (11715823_x_at) / RFU IGFBP7 (11715501_s_at) / Fold change /veh IGFBP7 (11715501_s_at) / RFU REEP3 (11722064_at) / Fold change /veh REEP3 (11722064_at) / RFU IGLL1 (11728026_x_at) / Fold change /veh IGLL1 (11728026_x_at): dose or concentration left out as unconfirmed
Conditions: ProbeSet 11721559_s_at; LIST B

In the case of `Nc1ccc(-c2cccs2)cc1NC(=O)c1ccc2c(c1)cc(C1CC1)n2CCN1CCOCC1` [ACY-1035], the “RFU, ZNF638 /// ZNF638-IT1” value is reported as 322.16 RFU.
